What all share (type): functional
For experiment [1], the system named is Streptococcus sp. 'group B'. The experiment is described as follows: Antimicrobial activity against Streptococcus sp. 'group B' isolate 16 harboring gyrA Ser81Leu mutant, parC Ser79Tyr mutant and parE Ileu495Leu mutant gene by agar dilution method. On the technique in general: In agar dilution, organisms are placed on agar that contains the substance at set levels.

In experiment [2] the test system is Streptococcus sp. 'group B'. The experiment is described as follows: Antimicrobial activity against Streptococcus sp. 'group B' isolate 9 harboring gyrA Ser81Leu mutant, parC Ser79Tyr mutant and parE Ileu495Leu mutant gene by agar dilution method.
Experiment [3] concerns Streptococcus sp. 'group B'. Nature of the experiment: Antimicrobial activity against Streptococcus sp. 'group B' isolate 1 harboring gyrA Glu85Lys mutant, parC Ser79Tyr mutant and parE Ileu495Leu mutant gene by agar dilution method.

Structures are written as SMILES. ≈ marks a conversion by molar mass, not a printed value.

Regarding `O=C(O)c1cn(C2CC2)c2cc(N3CCNCC3)c(F)cc2c1=O` [CIPROFLOXACIN], the results for the MIC in experiment [1] and in experiment [2] were 32 µg/mL (≈ 96.6 µM) and 64 µg/mL (≈ 193 µM), respectively.
Take `C[C@H]1NCc2cc(-c3ccc4c(=O)c(C(=O)O)cn(C5CC5)c4c3OC(F)F)ccc21` [GARENOXACIN]: the MIC in experiment [1], in experiment [2] and in experiment [3] was 2 µg/mL (≈ 4.69 µM) throughout.
Regarding `COc1c(N2CCNC(C)C2)c(F)cc2c(=O)c(C(=O)O)cn(C3CC3)c12` (configuration not stated) [GATIFLOXACIN], the MIC in experiment [1] worked out at 8 µg/mL (≈ 21.3 µM); in experiment [2], 4 µg/mL (≈ 10.7 µM); in experiment [3], 4 µg/mL (≈ 10.7 µM).
As to `C[C@H]1COc2c(N3CCN(C)CC3)c(F)cc3c(=O)c(C(=O)O)cn1c23.C[C@H]1COc2c(N3CCN(C)CC3)c(F)cc3c(=O)c(C(=O)O)cn1c23.O` [LEVOFLOXACIN], the results for the MIC in experiment [1], in experiment [2] and in experiment [3] were 32 µg/mL, 16 µg/mL and 16 µg/mL, respectively.
For `COc1c(N2C[C@@H]3CCCN[C@@H]3C2)c(F)cc2c(=O)c(C(=O)O)cn(C3CC3)c12` [MOXIFLOXACIN], the results for the MIC in experiment [1], in experiment [2] and in experiment [3] were 4 µg/mL (≈ 9.96 µM), 4 µg/mL (≈ 9.96 µM) and 2 µg/mL (≈ 4.98 µM), respectively.
On to `N[C@@H]1[C@H]2CN(c3nc4c(cc3F)c(=O)c(C(=O)O)cn4-c3ccc(F)cc3F)C[C@@H]12` [TROVAFLOXACIN], for which the values for the MIC in experiment [1], in experiment [2] and in experiment [3] were 16 µg/mL (≈ 38.4 µM), 8 µg/mL (≈ 19.2 µM) and 8 µg/mL (≈ 19.2 µM), respectively.

In general, MIC refers to the least concentration at which growth counts as inhibited. The low end stands for a more susceptible organism, the high end for a less susceptible organism.

(Values after ChEMBL document CHEMBL1255331, “Emergence of fluoroquinolone resistance in group B streptococcal isolates in Taiwan” (2008).)
